From patent US20250043299A1, “POINT MUTATIONS THAT BOOST AROMATIC AMINO ACID PRODUCTION AND CO2 ASSIMILATION IN PLANTS” (Wisconsin Alumni Research Foundation, priority 2021, published 2025)
pIC50: −log10 of the molar value. Where two headings read alike, the source gives them in different places.

How the values were obtained:
Assay type in all cases: biochemical
DHS1^B4 = molecular target: T1, DHS1^B4 (Arabidopsis thaliana, UniProt P29976, G244R); assay: DHS enzyme assay, recombinant DHS1^B4; settings: recombinant enzyme; for pIC50: read-out: IC50 of effector molecule on DHS1^B4
T1 construct: without the predicted plastid transit peptide (amino acid residues; 49-525, 34-507, and 52-527, respectively); made in house; host or cells: E. coli
Description: (§1) To generate recombinant DHS proteins the pET28a vectors carrying the A. thaliana DHS1 (AtDHS1), AtDHS2, or AtDHS3 WT sequence without the predicted plastid transit peptide (amino acid residues; 49-525, 34-507, and 52-527, respectively) were expressed in E. coli Rosetta-2 cells and purified using Ni-affinity chromatography, exactly as was conducted previously (9). To generate DHS proteins with individual sota mutations via site-directed mutagenesis, these pET28a plasmid templates were diluted by 500-fold, mixed with 0.04 U/μL Phusion DNA polymerase (Thermo Scientific), 0.2 mM deoxynucleoside triphosphates (dNTPs), 1× Phusion reaction buffer (Thermo Scientific), and 0.5 μM forward and reverse mutagenesis primers (Table 10). The PCR reaction was run using the following protocol: 98° C. for 30 s followed by 20 cycles of 10 s at 98° C., 20 s at 70° C., 4.5 min at 72° C. with a final extension at 72° C. for 10 min. The PCR products were purified using a QIAquick Gel Extraction Kit (QIAGEN), treated with FastDigest DpnI (Thermo Scientific) to digest methylated plasmid template DNA for 20 min at 37° C., and transformed into E. coli cells. The mutagenized pET28a plasmids were sequenced to confirm that no errors were introduced during the mutagenesis process.
(§2) The DHS enzyme assays were conducted using the colorimetric method that we recently described (9). Briefly, the enzyme solution (7.7 μl) containing 50 mM Hepes (pH 7.4) was preincubated with an effector molecule(s) at room temperature for 15 min. For assays using recombinant protein and enzyme fractions isolated from plant leaves, 0.01 to 0.1 μg and approximately 50 μg of proteins were used, respectively. After adding 0.5 μl of 0.1 M dithiothreitol, the samples were further incubated at room temperature for 15 min. During these incubations, the substrate solution containing 50 mM Hepes (pH 7.4), 2 mM MnCl2, 4 mM E4P, and 4 mM PEP at final concentration was preheated at 37° C. The enzyme reaction was started by adding 6.8 μl of the substrate solution, then incubated at 37° C. for 30 min, and terminated by adding 30 μl of 0.6 M trichloroacetic acid. After a brief centrifugation, 5 μl of 200 mM NaIO4 (sodium meta-periodate) in 9 N H3PO4 was added to oxidize the enzymatic product and to incubate at 25° C. for 20 min. To stop the oxidation reaction, 20 μl of 0.75 M NaAsO2 (sodium arsenite), which was dissolved in 0.5 M Na2SO4 and 0.05 M H2SO4, was added and immediately mixed. After 5 min of incubation at room temperature, one-third of the sample solution was transferred to a new tube to be mixed with 50 μl of 40 mM thiobarbituric acid and incubated at 99° C. for 15 min in a thermal cycler. The mixture was added to 600 μl of cyclohexanone in eight-strip solvent-resistant plastic tubes, mixed vigorously, and centrifuged at 4500 g for 3 min to separate water- and cyclohexanone-based layers for the extraction off the developed pink chromophore. The absorbance of the pink supernatant was read at 549 nm with the microplate reader (Infinite 200 PRO, TECAN) to calculate DAHP production with the molar extinction coefficient at 549 nm (ε=549 nm) of 4.5×10^4 M^−1 cm^−1. Reaction mixtures with boiled enzymes were run in parallel and used as negative controls to estimate the background signal.

DHS2^A4 = molecular target: T2, DHS2^A4 (Arabidopsis thaliana, UniProt Q00218, G222S); settings: for pIC50: read-out: IC50 of effector molecule on DHS2^A4
T2 construct: without the predicted plastid transit peptide (amino acid residues; 49-525, 34-507, and 52-527, respectively); made in house; host or cells: E. coli
Description: as §1, §2

DHS2^A11 = molecular target: T3, DHS2^A11 (Arabidopsis thaliana, UniProt Q00218, A224T); assay: DHS enzyme assay, recombinant DHS2^A11; settings: for pIC50: read-out: IC50 of effector molecule on DHS2^A11
T3 construct: without the predicted plastid transit peptide (amino acid residues; 49-525, 34-507, and 52-527, respectively); made in house; host or cells: E. coli
Description: as §1, §2

DHS2^F1 = molecular target: T4, DHS2^F1 (Arabidopsis thaliana, UniProt Q00218, L136F); assay: DHS enzyme assay, recombinant DHS2^F1; settings: for pIC50: read-out: IC50 of effector molecule on DHS2^F1
T4 construct: without the predicted plastid transit peptide (amino acid residues; 49-525, 34-507, and 52-527, respectively); made in house; host or cells: E. coli
Description: as §1, §2

[1] = molecular target: T5, Arabidopsis thaliana DHS1 (SEQ ID NO:1) variant DHS1^B4 (sotaB4), G244R (Arabidopsis thaliana, UniProt P29976, G244R); assay: DHS enzyme assay with effector, DHS1 sotaB4
T5 construct: without the predicted plastid transit peptide (amino acid residues; 49-525, 34-507, and 52-527, respectively); made in house; host or cells: E. coli
Description: as §1, §2

[2] = molecular target: T6, Arabidopsis thaliana DHS2 (SEQ ID NO:2) variant DHS2^A4 (sotaA4), G222S (Arabidopsis thaliana, UniProt Q00218, G222S); assay: biochemical
T6 construct: without the predicted plastid transit peptide (amino acid residues; 49-525, 34-507, and 52-527, respectively); made in house; host or cells: E. coli
Description: as §1, §2

[3] = molecular target: T7, Arabidopsis thaliana DHS2 (SEQ ID NO:2) variant DHS2^A11 (sotaA11), A224T (Arabidopsis thaliana, UniProt Q00218, A224T); assay: DHS enzyme assay with effector, DHS2 sotaA11
T7 construct: without the predicted plastid transit peptide (amino acid residues; 49-525, 34-507, and 52-527, respectively); made in house; host or cells: E. coli
Description: as §1
(§3) The DHS enzyme assays were conducted using the colorimetric method that we recently described (9). Briefly, the enzyme solution (7.7 μl) containing 50 mM Hepes (pH 7.4) was preincubated with an effector molecule(s) at room temperature for 15 min. For assays using recombinant protein and enzyme fractions isolated from plant leaves, 0.01 to 0.1 μg and approximately 50 μg of proteins were used, respectively. After adding 0.5 μl of 0.1 M dithiothreitol, the samples were further incubated at room temperature for 15 min. […] The absorbance of the pink supernatant was read at 549 nm with the microplate reader (Infinite 200 PRO, TECAN) to calculate DAHP production with the molar extinction coefficient at 549 nm (ε=549 nm) of 4.5×10^4 M^−1 cm^−1. […]

[4] = molecular target: T8, Arabidopsis thaliana DHS2 (SEQ ID NO:2) variant DHS2^F1 (sotaF1), L136F (Arabidopsis thaliana, UniProt Q00218, L136F); assay: DHS enzyme assay with effector, DHS2 sotaF1
T8 construct: without the predicted plastid transit peptide (amino acid residues; 49-525, 34-507, and 52-527, respectively); made in house; host or cells: E. coli
Description: as §1, §3

[5] = molecular target: Arabidopsis thaliana DHS3 (AtDHS3), wild type (DHS3^WT), SEQ ID NO:3 (Arabidopsis thaliana, UniProt Q9SK84); assay: DHS enzyme assay with effector, Arabidopsis DHS3 WT
Description: as §1, §3

[6] = molecular target: Arabidopsis thaliana DHS3 (SEQ ID NO:3) variant DHS3^G1 (sotaG1), A240T (Arabidopsis thaliana, UniProt Q9SK84, A240T); assay: DHS enzyme assay with effector, DHS3 sotaG1
Description: as §1, §3

[7] = molecular target: Arabidopsis thaliana DHS3 (SEQ ID NO:3) variant DHS3^H1 (sotaH1), G114R (Arabidopsis thaliana, UniProt Q9SK84, G114R); assay: DHS enzyme assay with effector, DHS3 sotaH1
Description: as §1, §3

[8] = DHS3^WT, 4 mM E4P, 4 mM PEP, pH 7.4, 37° C., read-out: IC50

T1 sequence (P29976 49-525 G244R): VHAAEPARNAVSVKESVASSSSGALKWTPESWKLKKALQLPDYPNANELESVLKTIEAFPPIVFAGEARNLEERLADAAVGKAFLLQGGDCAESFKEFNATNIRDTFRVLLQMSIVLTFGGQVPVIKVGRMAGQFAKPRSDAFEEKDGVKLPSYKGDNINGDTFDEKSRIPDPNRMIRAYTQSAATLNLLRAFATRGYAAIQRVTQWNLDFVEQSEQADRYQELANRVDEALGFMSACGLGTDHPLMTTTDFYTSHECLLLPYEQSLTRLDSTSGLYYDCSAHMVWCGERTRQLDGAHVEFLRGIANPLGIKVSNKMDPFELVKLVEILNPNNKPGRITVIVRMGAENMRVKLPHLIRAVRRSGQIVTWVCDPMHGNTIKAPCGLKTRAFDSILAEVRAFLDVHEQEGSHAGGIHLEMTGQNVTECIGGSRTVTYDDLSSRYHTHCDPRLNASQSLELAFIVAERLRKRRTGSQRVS
T5 sequence (P29976 49-525 G244R): as above
T8 sequence (Q00218 34-507 L136F): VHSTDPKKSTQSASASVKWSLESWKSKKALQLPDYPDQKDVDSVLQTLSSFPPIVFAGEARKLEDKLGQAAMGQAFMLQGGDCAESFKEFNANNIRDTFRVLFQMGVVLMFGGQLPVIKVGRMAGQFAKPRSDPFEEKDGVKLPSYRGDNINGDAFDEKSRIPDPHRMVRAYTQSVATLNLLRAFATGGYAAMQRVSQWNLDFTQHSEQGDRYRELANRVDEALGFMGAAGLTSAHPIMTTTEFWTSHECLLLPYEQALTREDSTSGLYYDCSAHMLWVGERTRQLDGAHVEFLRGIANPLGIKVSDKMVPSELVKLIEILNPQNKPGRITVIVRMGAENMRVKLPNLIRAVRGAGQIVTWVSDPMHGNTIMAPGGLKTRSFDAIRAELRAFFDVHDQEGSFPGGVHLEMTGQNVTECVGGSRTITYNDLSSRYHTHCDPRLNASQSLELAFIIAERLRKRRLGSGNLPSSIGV
T4 sequence (Q00218 34-507 L136F): as above
Arabidopsis thaliana DHS3 (SEQ ID NO:3) variant DHS3^H1 (sotaH1), G114R, sequence (Q9SK84 entry or part of it G114R): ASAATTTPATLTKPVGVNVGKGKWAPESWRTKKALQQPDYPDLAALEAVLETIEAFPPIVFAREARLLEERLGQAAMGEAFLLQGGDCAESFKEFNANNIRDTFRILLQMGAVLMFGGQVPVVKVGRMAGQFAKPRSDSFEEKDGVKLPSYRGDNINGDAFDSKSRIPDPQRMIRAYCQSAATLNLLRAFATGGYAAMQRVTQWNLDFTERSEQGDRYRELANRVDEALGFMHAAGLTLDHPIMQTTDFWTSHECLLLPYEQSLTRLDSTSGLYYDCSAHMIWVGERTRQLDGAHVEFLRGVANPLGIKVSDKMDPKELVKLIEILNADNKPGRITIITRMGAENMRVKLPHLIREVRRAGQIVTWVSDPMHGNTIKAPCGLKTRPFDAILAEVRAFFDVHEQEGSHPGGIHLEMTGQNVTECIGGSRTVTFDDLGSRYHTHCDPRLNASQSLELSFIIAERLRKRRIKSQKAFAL
T2 sequence (Q00218 34-507 G222S): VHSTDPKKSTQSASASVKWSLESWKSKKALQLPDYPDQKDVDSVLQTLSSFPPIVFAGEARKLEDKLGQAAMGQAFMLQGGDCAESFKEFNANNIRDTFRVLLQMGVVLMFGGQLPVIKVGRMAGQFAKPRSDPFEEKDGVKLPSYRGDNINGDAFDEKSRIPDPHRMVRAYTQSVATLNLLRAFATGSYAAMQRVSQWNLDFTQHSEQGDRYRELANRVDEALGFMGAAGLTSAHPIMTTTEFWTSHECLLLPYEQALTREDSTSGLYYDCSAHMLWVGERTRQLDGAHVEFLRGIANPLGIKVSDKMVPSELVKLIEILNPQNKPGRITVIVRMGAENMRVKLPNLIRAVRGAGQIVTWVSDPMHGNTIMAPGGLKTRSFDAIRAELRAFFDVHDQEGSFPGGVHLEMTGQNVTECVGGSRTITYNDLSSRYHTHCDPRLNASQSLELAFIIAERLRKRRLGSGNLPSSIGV
T6 sequence (Q00218 34-507 G222S): as above
T3 sequence (Q00218 34-507 A224T): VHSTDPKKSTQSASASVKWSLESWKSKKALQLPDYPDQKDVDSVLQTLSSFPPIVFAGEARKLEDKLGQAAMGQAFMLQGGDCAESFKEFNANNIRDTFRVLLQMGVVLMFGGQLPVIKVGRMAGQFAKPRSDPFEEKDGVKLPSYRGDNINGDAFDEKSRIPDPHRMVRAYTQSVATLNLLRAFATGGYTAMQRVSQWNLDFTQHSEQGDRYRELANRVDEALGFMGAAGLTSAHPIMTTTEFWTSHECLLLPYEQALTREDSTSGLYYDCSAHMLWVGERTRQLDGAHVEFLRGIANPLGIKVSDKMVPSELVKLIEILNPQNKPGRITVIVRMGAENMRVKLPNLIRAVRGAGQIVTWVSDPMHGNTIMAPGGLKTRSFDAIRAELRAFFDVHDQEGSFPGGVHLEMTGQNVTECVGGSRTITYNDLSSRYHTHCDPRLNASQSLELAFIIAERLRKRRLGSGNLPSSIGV
T7 sequence (Q00218 34-507 A224T): as above
Arabidopsis thaliana DHS3 (AtDHS3), wild type (DHS3^WT), SEQ ID NO:3, sequence (Q9SK84 entry or part of it): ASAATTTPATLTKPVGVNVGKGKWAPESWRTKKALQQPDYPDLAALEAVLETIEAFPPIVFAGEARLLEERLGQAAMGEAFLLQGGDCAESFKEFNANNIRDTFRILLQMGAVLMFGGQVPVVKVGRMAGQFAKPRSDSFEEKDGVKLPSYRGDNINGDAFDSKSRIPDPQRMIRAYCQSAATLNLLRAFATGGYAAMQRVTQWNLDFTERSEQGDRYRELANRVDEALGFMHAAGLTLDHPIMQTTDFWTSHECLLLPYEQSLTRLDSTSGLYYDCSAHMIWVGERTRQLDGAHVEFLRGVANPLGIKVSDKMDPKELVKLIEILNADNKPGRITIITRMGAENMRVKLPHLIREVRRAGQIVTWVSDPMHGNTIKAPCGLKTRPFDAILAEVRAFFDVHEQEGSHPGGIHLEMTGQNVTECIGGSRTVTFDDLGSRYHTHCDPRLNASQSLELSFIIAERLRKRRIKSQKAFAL

SMILES | pIC50 (DHS1^B4) | pIC50 (DHS2^A4; recombinant enzyme) | pIC50 (DHS2^A11; recombinant enzyme) | pIC50 (DHS2^F1; recombinant enzyme) | pIC50 [1] | pIC50 [2] | pIC50 [3] | pIC50 [4] | pIC50 [5, 8] | pIC50 [6] | pIC50 [7] | IC50 of effector molecule on DHS1^B4 (DHS1^B4) | inhibition of DHS2^A4 activity (DHS2^A4; effector up to 1 mM) | IC50 of effector molecule on DHS2^A4 (DHS2^A4; recombinant enzyme) | inhibition of DHS2^A11 activity (DHS2^A11; effector up to 1 mM) | IC50 of effector molecule on DHS2^A11 (DHS2^A11; recombinant enzyme) | inhibition of DHS2^F1 activity (DHS2^F1; effector up to 1 mM) | IC50 of effector molecule on DHS2^F1 (DHS2^F1; recombinant enzyme) | pIC50 [5]
O=C(O)C(=O)Cc1c[nH]c2ccccc12 [IPA, indole-3-pyruvate] | 2.30 | 4.13 | 4.04 | 4.13 | 2.30 | 4.13 | 4.04 | 4.13 | 4.60 | 3.56 | 3.97 | – | – | – | – | – | – | – | –
N[C@@H](Cc1c[nH]c2ccccc12)C(=O)O [Trp, tryptophan] | – | – | – | – | – | – | – | – | – | – | – | Not inhibited | not inhibited | Not inhibited | not inhibited | Not inhibited | not inhibited | Not inhibited | –
O=C(O)C(=O)Cc1ccc(O)cc1 [HPP, 4-Hydroxyphenylpyruvate] | 3.08 | 3.84 | 4.23 | 3.49 | 3.08 | 3.84 | 4.23 | 3.49 | 3.29 | 3.04 | 3.04 | – | – | – | – | – | – | – | –
O=C(O)Cc1cc(O)ccc1O [HGA, homogentisate] | 2.52 | 3.67 | 3.62 | 3.10 | 2.52 | 3.67 | 3.62 | 3.10 | – | 3.43 | 3.39 | – | – | – | – | – | – | – | 3.99
